Where “and” joins values, the source holds several entries; their conditions need not be identical. Identical values can stand only once. Starred links: 1 amine or outer side, 2 acyl side, 3 side chain; linkers in the order of their positions; H or OH if unused. Positions of bridges follow the written chain, without caps; N, C: chain ends. Non-standard residues stand in square brackets, D forms with d. Residues, ends and D or L forms follow the SMILES beside them. TATA = O=C(CC[*:1])N1CN(C(=O)CC[*:2])CN(C(=O)CC[*:3])C1; Phe(4-F) = N[C@@H](Cc1ccc(F)cc1)C(=O)O; β3hR = N=C(N)NCCC[C@H](N)CC(=O)O
Columns and labels:
Assay in all cases: Specificity profiling, residual protease activity
Type in all cases: biochemical
[1] = molecular target: T1, uPA (Homo sapiens, UniProt P00749)
T1 construct: purchased Molecular Innovations
Protocol: (§1) Protease inhibition assays
(§2) The inhibitory activity of peptides was determined by measuring the residual protease activity with a fluorogenic substrate. The assay was performed in buffer containing 10 mM Tris-Cl, pH […]
(§3) 1% (v/v) DMSO in a volume of 150 µl. […]
(§4) HFXIIAB) were used at final concentrations of 0.4 nM. The reaction was pipetted as follows: 50 µl of bicyclic peptide in assay buffer were added to 50 µl of FXIIa in assay buffer and incubated for 10 minutes at 25°C before 50 µl of 150 µM fluorogenic substrate in assay buffer were added to measure the residual protease activity with an Infinite M200Pro fluorescence plate reader (excitation at 368 nm, emission at 467 nm; Tecan) for a period of 30 minutes with a read every minute at 25°C. The Tecan software i-control (version 1.1) was used for data analysis. Stock solutions of 1 mM bicyclic peptide were prepared by either dissolving the unpurified cyclization reaction with water or by dissolving purified and lyophilized peptide in water. The bicyclic peptides were serially diluted two-fold using assay buffer. Sigmoidal curves were fitted to the data using the following dose response equation (1), wherein x = peptide concentration, y = % protease activity, and p = Hill slope. IC50 values were derived from the fitted curve.
(§5) The inhibition constants (Ki) were calculated according to the equation of Cheng and Prusoff, Ki = IC50/(1+([S]0/Km), wherein IC50 is the functional strength of the inhibitor, [S]0 is the total substrate concentration, and Km is the Michaelis-Menten constant. […]
(§6) For testing the specificity of the bicyclic peptides, the following final concentrations of human serine proteases were used: tPA (Molecular Innovations) 7.5 nM, uPA (Molecular Innovations) 1.5 nM, factor XIa (Innovative Research) 6 nM, plasma kallikrein (Innovative Research) 0.25 nM, thrombin (Molecular Innovations) 1 nM, plasmin (Molecular Innovations) 2.5 nM, trypsin (Molecular Innovations) 0.05 nM, factor VIIa (Haematologic Technologies) 50 nM, factor Xa […]
(§7) (Haematologic Technologies) 6 nM, and activated protein C (APC) 5 nM. Two-fold dilutions of the peptide were prepared that ranged from 0.04 to 40 µM. The following fluorogenic substrates were used at a final concentration of 50 µM: Z-Phe-Arg-AMC (Bachem) for plasma kallikrein; Boc-Phe-Ser-Arg-AMC (Bachem) for factor XIa; Z-Gly-Gly-Arg-AMC (Bachem) for tPA, uPA, thrombin, and trypsin; H-D-Val-Leu-Lys-AMC (Bachem) for plasmin; and D-Phe-Pro-Arg-ANSNH-C4H9 (Haematologic Technologies) for FVIIa and FXa. For APC, the chromogenic substrate pyroGlu-Pro-Arg-pNA (S2366) was used at a concentration of 400 µM. […]

[2] = molecular target: T2, thrombin (Homo sapiens, UniProt P00734)
T2 construct: nM, thrombin (Molecular Innovations) 1 nM, plasmin (Molecular Innovations) 2.5 nM, trypsin; purchased Molecular Innovations
Protocol: as §1, §2, §3, §4, §5, §6, §7

[3] = molecular target: T3, factor XIa (Homo sapiens, UniProt P03951)
T3 construct: 1.5 nM, factor XIa (Innovative Research) 6 nM, plasma kallikrein (Innovative Research) 0.25; purchased Innovative Research
Protocol: as §1, §2, §3, §4, §5, §6, §7

[4] = molecular target: T4, tPA (Homo sapiens, UniProt P00750)
T4 construct: purchased Molecular Innovations
Protocol: as §1, §2, §3, §4, §5, §6, §7

[5] = inhibitor 39.0625 nM, 0.0390625 µM
[6] = inhibitor 78.125 nM, 0.078125 µM
[7] = inhibitor 156.25 nM, 0.15625 µM
[8] = inhibitor 40000 nM (40 µM), 40 µM

T4 sequence (P00750 36-562): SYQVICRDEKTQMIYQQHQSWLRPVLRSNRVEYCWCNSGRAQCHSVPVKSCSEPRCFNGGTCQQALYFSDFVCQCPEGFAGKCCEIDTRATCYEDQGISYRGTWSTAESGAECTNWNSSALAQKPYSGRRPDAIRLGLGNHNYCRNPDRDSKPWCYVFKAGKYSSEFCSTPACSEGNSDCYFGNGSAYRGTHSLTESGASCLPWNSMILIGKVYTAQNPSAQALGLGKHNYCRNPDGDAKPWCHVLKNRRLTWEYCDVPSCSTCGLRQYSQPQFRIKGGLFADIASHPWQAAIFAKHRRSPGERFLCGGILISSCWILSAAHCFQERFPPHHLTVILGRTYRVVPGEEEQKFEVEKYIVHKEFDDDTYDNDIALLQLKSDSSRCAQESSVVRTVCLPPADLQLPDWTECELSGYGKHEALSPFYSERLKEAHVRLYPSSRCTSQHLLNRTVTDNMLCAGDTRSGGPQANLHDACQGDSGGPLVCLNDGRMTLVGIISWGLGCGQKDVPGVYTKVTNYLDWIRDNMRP
T3 sequence (P03951 388-625 limits assumed): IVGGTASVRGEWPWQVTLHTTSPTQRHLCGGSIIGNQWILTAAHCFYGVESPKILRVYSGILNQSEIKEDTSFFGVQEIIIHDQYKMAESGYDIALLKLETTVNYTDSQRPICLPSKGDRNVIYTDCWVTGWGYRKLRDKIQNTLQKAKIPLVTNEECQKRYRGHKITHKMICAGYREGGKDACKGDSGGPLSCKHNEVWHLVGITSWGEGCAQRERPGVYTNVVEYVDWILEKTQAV
T3 sequence (P03951 19-387 limits assumed): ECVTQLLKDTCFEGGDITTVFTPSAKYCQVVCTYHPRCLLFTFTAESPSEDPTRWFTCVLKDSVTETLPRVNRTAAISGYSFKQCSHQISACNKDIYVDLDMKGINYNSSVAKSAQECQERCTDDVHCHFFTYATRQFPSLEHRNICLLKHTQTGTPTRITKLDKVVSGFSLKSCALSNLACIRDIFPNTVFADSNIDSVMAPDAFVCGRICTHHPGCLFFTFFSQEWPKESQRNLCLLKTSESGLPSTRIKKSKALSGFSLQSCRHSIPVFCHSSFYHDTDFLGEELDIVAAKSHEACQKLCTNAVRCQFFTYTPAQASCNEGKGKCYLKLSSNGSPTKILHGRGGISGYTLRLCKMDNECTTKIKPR

CC(C)C[C@@H]1NC(=O)[C@H](CCC(N)=O)NC(=O)[C@H](Cc2c[nH]cn2)NC(=O)[C@@H]2CSCCC(=O)N3CN(CN(C3)C(=O)CCSC[C@H](NC(=O)[C@@H](CO)NC(=O)[C@H](N)CCCNC(=N)N)C(=O)N[C@@H](Cc3ccc(F)cc3)C(=O)N[C@@H](CCCNC(=N)N)C(=O)N[C@@H](CC(C)C)C(=O)N3CCC[C@H]3C(=O)N2)C(=O)CCSC[C@@H](C(N)=O)NC(=O)C[C@H](CCCNC(=N)N)NC1=O [FXII900] (H-[dR][dS]C[Phe(4-F)]RLPCHQL[β3hR]C-NH2; linker 3-8-13 via TATA) was tested, and the Ki [1] was > 40 µM, the remaining activity at 0.0390625 µM ([1]; inhibitor 39.0625 nM) was 96.1% and the “Residual activity of uPa” value [1, 5] was 99.3438%. For the same compound, the remaining activity at 0.078125 µM ([1]; inhibitor 78.125 nM) was 94.9%, the “Residual activity of uPa” value [1, 6] was 99.5842% and the remaining activity at 0.15625 µM ([1]; inhibitor 156.25 nM) was 99.6%. The “Residual activity of uPa” value [1, 7] was 106.929%, the remaining activity at 0.3125 µM ([1]; inhibitor 312.5 nM) was 98.2% and the “Residual activity of uPa” value ([1]; inhibitor 312.5 nM, 0.3125 µM) was 103.987%. For the same compound, the remaining activity at 0.625 µM ([1]; inhibitor 625 nM) was 98.8%, the “Residual activity of uPa” value ([1]; inhibitor 625 nM, 0.625 µM) was 103.035% and the remaining activity at 1.25 µM ([1]; inhibitor 1250 nM) was 100%. For the same compound, the “Residual activity of uPa” value ([1]; inhibitor 1250 nM, 1.25 µM) was 106.211%, the remaining activity at […] ([1]; inhibitor 2500 nM) was 101% and the “Residual activity of uPa” value ([1]; inhibitor 2500 nM, […]) was 90.2133%. For the same compound, the remaining activity at 5 µM ([1]; inhibitor 5000 nM) was 99.4%, the “Residual activity of uPa” value ([1]; inhibitor 5000 nM, 5 µM) was 106.237% and the remaining activity at 10 µM ([1]; inhibitor 10000 nM) was 96.6%. The “Residual activity of uPa” value ([1]; inhibitor 10000 nM, 10 µM) was 102.075%, the remaining activity at 20 µM ([1]; inhibitor 20000 nM) was 96.3% and the “Residual activity of uPa” value ([1]; inhibitor 20000 nM, 20 µM) was 101.698%. For the same compound, the remaining activity at 40 µM ([1]; inhibitor 40000 nM (40 µM)) was 98.7%, the “Residual activity of uPa” value [1, 8] was 97.4594% and 105.626% and the Ki [2] was > 40 µM. For the same compound, the remaining activity at 0.0390625 µM ([2]; inhibitor 39.0625 nM) was 101%, the “Residual activity of Thrombin” value [2, 5] was 100% and the remaining activity at 0.078125 µM ([2]; inhibitor 78.125 nM) was 103%. For the same compound, the “Residual activity of Thrombin” value [2, 6] was 98.3135%, the remaining activity at 0.15625 µM ([2]; inhibitor 156.25 nM) was 105% and the “Residual activity of Thrombin” value [2, 7] was 102.594%. For the same compound, the remaining activity at 0.3125 µM ([2]; inhibitor 312.5 nM) was 104%, the “Residual activity of Thrombin” value ([2]; inhibitor 312.5 nM, 0.3125 µM) was 101.218% and the remaining activity at 0.625 µM ([2]; inhibitor 625 nM) was 102%. The “Residual activity of Thrombin” value ([2]; inhibitor 625 nM, 0.625 µM) was 96.4184%, the remaining activity at 1.25 µM ([2]; inhibitor 1250 nM) was 105% and the “Residual activity of Thrombin” value ([2]; inhibitor 1250 nM, 1.25 µM) was 102.09%. For the same compound, the remaining activity at […] ([2]; inhibitor 2500 nM) was 103%, the “Residual activity of Thrombin” value ([2]; inhibitor 2500 nM, […]) was 101.007% and the remaining activity at 5 µM ([2]; inhibitor 5000 nM) was 105%. The “Residual activity of Thrombin” value ([2]; inhibitor 5000 nM, 5 µM) was 93.4869%, the remaining activity at 10 µM ([2]; inhibitor 10000 nM) was 99% and the “Residual activity of Thrombin” value ([2]; inhibitor 10000 nM, 10 µM) was 98.045%. The remaining activity at 20 µM ([2]; inhibitor 20000 nM) was 102%, the “Residual activity of Thrombin” value ([2]; inhibitor 20000 nM, 20 µM) was 95.8152% and the remaining activity at 40 µM ([2]; inhibitor 40000 nM (40 µM)) was 95%. The “Residual activity of Thrombin” value [2, 8] was 99.0803% and 90.0661%, the “Residual activity of FXIa” value [3, 5] was 100.642% and the remaining activity at 0.0390625 µM ([3]; inhibitor 39.0625 nM, read-out: Residual activity of FXIa) was 96.6%. For the same compound, the “Residual activity of FXIa” value [3, 6] was 103.852%, the remaining activity at 0.078125 µM ([3]; inhibitor 78.125 nM, read-out: Residual activity of FXIa) was 93.8% and the “Residual activity of FXIa” value [3, 7] was 98.179%. For the same compound, the remaining activity at 0.15625 µM ([3]; inhibitor 156.25 nM, read-out: Residual activity of FXIa) was 94.7%, the “Residual activity of FXIa” value ([3]; inhibitor 312.5 nM, 0.3125 µM) was 98.2463% and the remaining activity at 0.3125 µM ([3]; inhibitor 312.5 nM, read-out: Residual activity of FXIa) was 97.5%. For the same compound, the “Residual activity of FXIa” value ([3]; inhibitor 625 nM, 0.625 µM) was 97.4314%, the remaining activity at 0.625 µM ([3]; inhibitor 625 nM, read-out: Residual activity of FXIa) was 94.9% and the “Residual activity of FXIa” value ([3]; inhibitor 1250 nM, 1.25 µM) was 98.4364%. For the same compound, the remaining activity at 1.25 µM ([3]; inhibitor 1250 nM, read-out: Residual activity of FXIa) was 94.1%, the “Residual activity of FXIa” value ([3]; inhibitor 2500 nM, […]) was 98.6547% and the remaining activity at […] ([3]; inhibitor 2500 nM, read-out: Residual activity of FXIa) was 91.5%. The “Residual activity of FXIa” value ([3]; inhibitor 5000 nM, 5 µM) was 98.6945%, the remaining activity at 5 µM ([3]; inhibitor 5000 nM, read-out: Residual activity of FXIa) was 98.9% and the “Residual activity of FXIa” value ([3]; inhibitor 10000 nM, 10 µM) was 99.1545%. For the same compound, the remaining activity at 10 µM ([3]; inhibitor 10000 nM, read-out: Residual activity of FXIa) was 97.3%, the “Residual activity of FXIa” value ([3]; inhibitor 20000 nM, 20 µM) was 95.8964% and the remaining activity at 20 µM ([3]; inhibitor 20000 nM, read-out: Residual activity of FXIa) was 96.3%. The “Residual activity of FXIa” value [3, 8] was 95.5908% and 94.7249%, the remaining activity at 40 µM ([3]; inhibitor 40000 nM (40 µM), read-out: Residual activity of FXIa) was 95.1% and the Ki ([3]; read-out: Ki FXIa) was > 40 µM. The Ki [4] was > 40 µM, the remaining activity at 0.0390625 µM ([4]; inhibitor 39.0625 nM) was 95.1% and the “Residual activity of tPa” value [4, 5] was 93.3208%. The remaining activity at 0.078125 µM ([4]; inhibitor 78.125 nM) was 95.9%, the “Residual activity of tPa” value [4, 6] was 101.687% and the remaining activity at 0.15625 µM ([4]; inhibitor 156.25 nM) was 98.8%. The “Residual activity of tPa” value [4, 7] was 101.694%, the remaining activity at 0.3125 µM ([4]; inhibitor 312.5 nM) was 97.2% and the “Residual activity of tPa” value ([4]; inhibitor 312.5 nM, 0.3125 µM) was 101.741%. For the same compound, the remaining activity at 0.625 µM ([4]; inhibitor 625 nM) was 95%, the “Residual activity of tPa” value ([4]; inhibitor 625 nM, 0.625 µM) was 94.8368% and the remaining activity at 1.25 µM ([4]; inhibitor 1250 nM) was 101%. The “Residual activity of tPa” value ([4]; inhibitor 1250 nM, 1.25 µM) was 102.859%, the remaining activity at […] ([4]; inhibitor 2500 nM) was 100% and the “Residual activity of tPa” value ([4]; inhibitor 2500 nM, […]) was 101.452%. The remaining activity at 5 µM ([4]; inhibitor 5000 nM) was 87.2%, the “Residual activity of tPa” value ([4]; inhibitor 5000 nM, 5 µM) was 93.856% and the “Residual activity of tPa” value ([4]; inhibitor 10000 nM, 10 µM) was 102.407% and 77.7753%. For the same compound, the remaining activity at 20 µM ([4]; inhibitor 20000 nM) was 89.2%, the “Residual activity of tPa” value ([4]; inhibitor 20000 nM, 20 µM) was 97.2498% and the remaining activity at 40 µM ([4]; inhibitor 40000 nM (40 µM)) was 97%. For the same compound, the “Residual activity of tPa” value [4, 8] was 94.4809% and 101.833%.
